Data as given in patent US11780845B2 (Relay Therapeutics, Inc., priority 2019, dated 2023).

target: FGFR2 (Homo sapiens (Human), UniProt P21802); experiment: FGFR2 Biochemical Caliper Assay
Experimental: Compounds of the present invention were also tested in a FGFR2 Biochemical Caliper Assay. Compounds were prepared in 10 mM DMSO solution and serially diluted into 11 concentrations by 3-fold dilution. […] 5 uL of ATP solution (100 uM) was added to start the reaction and the plate was incubated for 90 minutes, then 70 uL of stopping buffer (0.5M EDTA) was added to terminate the reaction. Each well was analyzed using EZ reader.

Chain of FGFR2 (P21802 22-821): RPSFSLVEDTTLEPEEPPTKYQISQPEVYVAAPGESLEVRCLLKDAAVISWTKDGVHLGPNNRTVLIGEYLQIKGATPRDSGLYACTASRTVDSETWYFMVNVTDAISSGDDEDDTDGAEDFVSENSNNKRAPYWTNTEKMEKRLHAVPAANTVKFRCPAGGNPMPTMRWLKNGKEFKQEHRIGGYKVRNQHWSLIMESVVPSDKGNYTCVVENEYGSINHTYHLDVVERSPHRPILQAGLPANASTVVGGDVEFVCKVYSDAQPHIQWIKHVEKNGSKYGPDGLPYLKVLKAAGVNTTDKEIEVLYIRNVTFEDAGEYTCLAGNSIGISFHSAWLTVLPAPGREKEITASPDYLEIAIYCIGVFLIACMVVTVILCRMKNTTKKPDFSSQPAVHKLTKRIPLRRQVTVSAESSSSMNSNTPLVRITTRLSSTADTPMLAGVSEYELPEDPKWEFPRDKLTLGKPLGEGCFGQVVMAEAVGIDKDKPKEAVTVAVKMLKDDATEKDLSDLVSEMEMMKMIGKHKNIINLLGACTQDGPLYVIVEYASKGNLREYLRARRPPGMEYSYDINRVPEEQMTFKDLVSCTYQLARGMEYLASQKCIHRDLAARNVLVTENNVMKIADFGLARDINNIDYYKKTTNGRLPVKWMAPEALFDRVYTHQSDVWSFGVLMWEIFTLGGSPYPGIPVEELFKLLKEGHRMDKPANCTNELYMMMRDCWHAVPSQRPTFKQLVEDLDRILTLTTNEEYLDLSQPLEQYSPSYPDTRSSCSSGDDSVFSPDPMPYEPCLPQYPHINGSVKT

Row | IC50 [µM] | SMILES
1 | 0.25 to 1 | C/C(=C\CN(C)C)C(=O)Nc1ccc(-c2c(-c3ccc(C(=O)N4CCCC4)cc3)c3c(N)ncnc3n2C)cc1 [Example 553]
2 | < 0.1 | C=C(C)C(=O)Nc1ccc(-c2c(-c3ccc(Oc4nccc(C)n4)c(F)c3)c3c(N)ncnc3n2C)c(CN(C)C)c1 [Example 555]
3 | 0.25 to 1 | Cn1c(-c2ccc(N3CC=CS3(=O)=O)cc2)c(-c2ccc(C(=O)N3CCCC3)cc2)c2c(N)ncnc21 [Example 556]
4 | 1 to 100 | Cn1c(-c2ccc(N3CC=CC3=O)cc2)c(-c2ccc(C(=O)N3CCCC3)cc2)c2c(N)ncnc21 [Example 557]
5 | 0.25 to 1 | CC(Cl)C(=O)Nc1ccc(-c2c(-c3ccc(C(=O)N4CCCC4)cc3)c3c(N)ncnc3n2C)cc1 (stereo not drawn) [Example 561]
6 | 1 to 100 | C=C(C)C(=O)Nc1ccc(-c2c([C@H]3CC[C@@H](C(=O)N4CCCC4)CC3)c3c(N)ncnc3n2C)cc1 [Example 577]
7 | 1 to 100 | C=C(C)C(=O)Nc1ccc(-c2c([C@H]3CC[C@H](C(=O)N4CCCC4)CC3)c3c(N)ncnc3n2C)cc1 [Example 578]
8 | 1 to 100 | C=C(C)C(=O)Nc1ccc(-c2c(C3=CC[C@H](C(=O)N4CC5CC5C4)CC3)c3c(N)ncnc3n2C)cc1 (stereo partly drawn) [Example 581]
9 | 0.1 to 0.25 | Cn1c(-c2ccc(NC(=O)C3CO3)cc2)c(-c2ccc(C(=O)N3CCCC3)cc2)c2c(N)ncnc21 (stereo not drawn) [Example 586]
10 | 1 to 100 | C=C(C)C(=O)Nc1ccc(-c2c(-c3ccc(C(=O)N4CCCC4)cc3Cl)c3c(N)ncnc3n2C)cc1 [Example 587]
11 | 1 to 100 | C=C(C)C(=O)Nc1ccc(-c2c(-c3ccc(C(=O)N4CCCC4)cc3C(F)F)c3c(N)ncnc3n2C)cc1 [Example 588]
12 | < 0.1 | C=C(C)C(=O)Nc1ccc(-c2c(-c3ccc(C(=O)N4CC5CC4(C(F)F)C5)cc3)c3c(N)ncnc3n2C)cc1 [Example 595]
13 | < 0.1 | C=C(C)C(=O)Nc1ccc(-c2c(-c3ccc(C(=O)N4CCCC4)cn3)c3c(N)ncnc3n2C)cc1 [Example 596]
14 | 1 to 100 | C=C(C)C(=O)Nc1ccc(-c2c(-c3ccc(C(=O)N4CCCC4)cc3C)c3c(N)ncnc3n2C)cc1 [Example 597]
15 | 0.1 to 0.25 | C=C(C)C(=O)Nc1ccc(-c2c(-c3ccc4c(c3)COC4c3cccc(C)n3)c3c(N)ncnc3n2C)cc1 (stereo not drawn) [Example 599]
16 | < 0.1 | C=CC(=O)N1CC(c2c(-c3ccc(Oc4ccccc4)cc3)c3c(N)ncnc3n2C)C1 [Example 604]
17 | < 0.1 | C=CC(=O)N[C@H]1C[C@H](n2cc(-c3c(-c4ccc(Oc5ccccc5)cc4)c4c(N)ncnc4n3C)cn2)C1 [Example 605]
18 | < 0.1 | C=CC(=O)N[C@H]1C[C@@H](n2cc(-c3c(-c4ccc(Oc5ccccc5)cc4)c4c(N)ncnc4n3C)cn2)C1 [Example 606]
19 | 0.25 to 1 | C=CC(=O)N1CCC(n2cc(-c3c(-c4ccc(Cl)c(OC)c4)c4c(N)ncnc4n3C)cn2)CC1 [Example 609]
20 | 0.25 to 1 | C=CC(=O)N1CCC(n2cc(-c3c(-c4ccc(F)c(OC)c4)c4c(N)ncnc4n3C)cn2)CC1 [Example 610]
21 | 1 to 100 | C=CC(=O)N1CCC(n2cc(-c3c(-c4ccccc4OC)c4c(N)ncnc4n3C)cn2)CC1 [Example 611]
22 | 0.1 to 0.25 | C=CC(=O)N1CCC(n2cc(-c3c(-c4ccc(Oc5ccccc5)c(OC)c4)c4c(N)ncnc4n3C)cn2)CC1 [Example 612]
23 | 1 to 100 | C=CC(=O)N1CCC(n2cc(-c3c(-c4cc(OC)c(Cl)cc4Cl)c4c(N)ncnc4n3C)cn2)CC1 [Example 613]
24 | 1 to 100 | C=CC(=O)N1CCC(n2cc(-c3c(-c4cc(OC)c(Cl)cc4F)c4c(N)ncnc4n3C)cn2)CC1 [Example 614]
25 | < 0.1 | C=CC(=O)N1CCC(n2cc(-c3c(-c4ccc(Oc5ccccc5)cc4Cl)c4c(N)ncnc4n3C)cn2)CC1 [Example 615]
26 | 1 to 100 | C=CC(=O)N1CCC(n2cc(-c3c(-c4c(Cl)ccc5c4OCO5)c4c(N)ncnc4n3C)cn2)CC1 [Example 616]
27 | 1 to 100 | C=CC(=O)N[C@H]1CC[C@@H](c2c(-c3ccc(Oc4cccc(C)n4)c(OC)c3)c3c(N)ncnc3n2C)CC1 [Example 624]
